Data taken from US20240327392A1, “HETEROCYCLOALKYL-SUBSTITUTED POLYHETEROAZOLE DERIVATIVES AS MEDICAMENTS FOR TREATING AND/OR PREVENTING RS VIRUS INFECTIONS” (ALBIUS SCIENCES ALPHA PRIVATE LIMITED, priority 2021, published 2024).
pIC50: −log10 of the molar value.

Each compound was assayed on human RS virus A2 strain (assay: In vitro test for anti-RS virus proliferation inhibitory activity (quantitative RT-PCR of RS virus RNA copy number in infected Vero cells)). Conditions: 72 h; Vero cells infected with human RS virus A2 strain, 3 days of incubation, RS virus N gene RNA copy number by quantitative RT-PCR; read-out: Anti-RS virus Activity.
Type: cell-based
Outline: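 Vero cells infected with RSV A2 (1.7×10^4 TCID50/mL in inoculum mix) with compound in 10% FCS EMEM, 3 days at 37 °C, 5% CO2. Lysate viral N-gene RNA quantified by one-step SYBR qRT-PCR; copy number by comparative Ct relative to untreated infected cells.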
`NC(=O)c1ccc2cc(C(=O)N3C[C@H](O)C[C@H]3c3nc(CCCc4ccccc4)no3)ccc2c1` [Compound 4-5] showed a pIC50 of under 4.30.
With `CS(=O)(=O)N1C[C@H](O)C[C@H]1c1nc(CCCc2ccccc2)no1` [Compound 3C, 3-(3-phenylpropyl)-5-[(2S,4R)-4-hydroxy-1-methanesulfonylpyrrolidin-2-yl]-1,2,4-oxadiazole] the pIC50 was under 4.30.
With `CC(C)CS(=O)(=O)N1CCC[C@H]1c1nc(CCCc2ccccc2)no1` [Compound 1A, 3-(3-phenylpropyl)-5-[(2S)-1-isobutylsulfonylpyrrolidin-2-yl]-1,2,4-oxadiazole] the pIC50 was under 4.30.
With `CC(C)CS(=O)(=O)N1CCCC[C@H]1c1nc(CCCc2ccccc2)no1` [Compound 2A, 3-(3-phenylpropyl)-5-[(2S)-1-isobutylsulfonylpiperidin-2-yl]-1,2,4-oxadiazole] the pIC50 was 4.30 to 5.00.
Work on `O=S(=O)(c1ccccc1)N1CCC[C@H]1c1nc(CCCc2ccccc2)no1` [Compound 1D, 3-(3-phenylpropyl)-5-[(2S)-1-benzenesulfonylpyrrolidin-2-yl]-1,2,4-oxadiazole] yielded a pIC50 of 4.30 to 5.00.

Same assay, conditions: 72 h; Vero cells infected with human RS virus A2 strain, 3 days of incubation, RS virus RNA copy number by quantitative RT-PCR; read-out: Anti-RS virus Activity
`CC(C)(C)OC(=O)N1[C@@H]2CC[C@@H](C2)[C@H]1c1nnc(CCc2ccncc2)[nH]1` [Compound 25-1, Tert-butyl (1R,3S,4S)-3-(5-(2-(pyridin-4-yl)ethyl)-4H-1,2,4-triazol-3-yl)-2-azabicyclo[2.2.1]heptane-2-carboxylate] showed a pIC50 of 4.30 to 5.00.
`O=S(=O)(c1ccccc1)N1CC2(CC2)C[C@H]1c1nc(CCCc2ccccc2)no1` [Compound 5D, 3-(3-phenylpropyl)-5-{(6S)-5-benzenesulfonyl-5-azaspiro[2.4]hept-6-yl}-1,2,4-oxadiazole] gave a pIC50 of under 4.30.
In the case of `CN(C)c1ccc(S(=O)(=O)N2C[C@H](F)C[C@H]2c2nc(CCCc3ccccc3)no2)cc1` [Compound 8AK, 4-(((2S,4R)-4-fluoro-2-(3-(3-phenylpropyl)-1,2,4-oxadiazole-5-yl)pyrrolidin-1-yl)sulfonyl)-N,N-dimethylaniline], the pIC50 was over 5.00.
Work on `Fc1ccc(CN2CCC[C@H]2c2nc(CCCc3ccccc3)no2)cc1` [Compound 1V, (S)-5-(1-(4-fluorobenzyl)pyrrolidin-2-yl)-3-(3-phenylpropyl)-1,2,4-oxadiazole] yielded a pIC50 of over 5.00.
Work on `O=S(=O)(c1ccccc1)N1CC(c2ccccc2)C[C@H]1c1nc(CCCc2ccccc2)no1` (stereo in doubt) [Compound 7D, 3-(3-phenylpropyl)-5-[(2S,4S)-1-benzenesulfonyl-4-phenylpyrrolidin-2-yl]-1,2,4-oxadiazole] yielded a pIC50 of over 5.00.
Compound `c1ccc(CCCc2noc([C@@H]3CCCCN3CC3CCCCC3)n2)cc1` [Compound 2U, (S)-5-(1-(cyclohexylmethyl)piperidin-2-yl)-3-(3-phenylpropyl)-1,2,4-oxadiazole] has a pIC50 of over 5.00.
For `CC(C)(C)OC(=O)N1C[C@H](c2ccccc2)C[C@H]1c1nc(CCCCCc2ccccc2)no1` [Compound C5-7-1, Tert-butyl (2S,4S)-4-phenyl-2-(3-(5-phenylpentyl)-1,2,4-oxadiazol-5-yl)pyrrolidine-1-carboxylate], the pIC50 was over 5.00.
For `CC(C)(C)OC(=O)N1[C@@H]2CC[C@@H](C2)[C@H]1c1nnc(Cc2c[nH]c3ccccc23)[nH]1` [Compound 24-1, Tert-butyl (1R,3S,4S)-3-(5-((1H-indol-3-yl)methyl)-4H-1,2,4-triazol-3-yl)-2-azabicyclo[2.2.1]heptane-2-carboxylate], the pIC50 was 4.30 to 5.00.
Compound `CC(C)(C)OC(=O)N1CCCC[C@H]1c1noc(CCc2ccccc2)n1` [Compound C2-16-1, Tert-butyl (S)-2-(5-phenethyl-1,2,4-oxadiazol-3-yl) piperidine-1-carboxylate] has a pIC50 of 4.30 to 5.00.
In the case of `[O-][S+](N1CCCC[C@H]1c1nc(CCCc2ccccc2)no1)C12CC3CC(CC(C3)C1)C2` (stereo partly drawn) [2AF′, 5-((2S)-1-((adamantan-1-yl)sulfinyl)piperidin-2-yl)-3-(3-phenylpropyl)-1,2,4-oxadiazole], the pIC50 was 4.30 to 5.00.
Compound `COC(=O)N1CCC[C@H]1c1nc(CCCc2ccccc2)no1` [Compound 1K, Methyl (S)-2-(3-(3-phenylpropyl)-1,2,4-oxadiazol-5-yl) pyrrolidine-1-carboxylate] has a pIC50 of 4.30 to 5.00.
Work on `CC(C)(C)OC(=O)N1CCC(CS(=O)(=O)N2CC3(CC3)C[C@H]2c2nc(CCCc3ccccc3)no2)CC1` [Compound 5AN, tert-buthyl (S)-4-(((6-(3-(3-phenylpropyl)-1,2,4-oxadiazole-5-yl)-5-azaspiro[2.4]heptan-5-yl)sulfonyl)methyl)piperidin-1-carboxylate] yielded a pIC50 of over 5.00.
Compound `O=S(=O)(Cc1ccccc1)N1C[C@H](F)C[C@H]1c1nc(CCCc2ccccc2)no1` [Compound 8E, 3-(3-phenylpropyl)-5-[(2S,4R)-1-benzylsulfonyl-4-fluoropyrrolidin-2-yl]-1,2,4-oxadiazole] has a pIC50 of over 5.00.
Work on `CN(C)c1cccc2c(S(=O)(=O)N3CC(CC4CCC4)CC3c3nc(CCCc4ccccc4)no3)cccc12` (centres unmarked) [Compound 6AL, 5-((4-(cyclobuthylmethyl)-2-(3-(3-phenylpropyl)-1,2,4-oxadiazole-5-yl)pyrrolidin-1-yl)sulfonyl)-N,N-dimethylnaphthalen-1-amine] yielded a pIC50 of over 5.00.
With `CN(C)c1ccc(S(=O)(=O)N2CC3(CC3)C[C@H]2c2nc(CCCc3ccccc3)no2)cc1` [Compound 5AK, (S)-N,N-dimethyl-4-((6-(3-(3-phenylpropyl)-1,2,4-oxadiazole-5-yl)-5-azaspiro[2.4]heptan-5-yl)sulfonyl)aniline] the pIC50 was over 5.00.
For `c1ccc(CCCc2noc([C@@H]3CCCCN3Cc3ccccc3)n2)cc1` [Compound 2AA, (S)-5-(1-benzylpiperidin-2-yl)-3-(3-phenylpropyl)-1,2,4-oxadiazole], the pIC50 was 4.30 to 5.00.
For `CS(=O)(=O)N1CC(c2ccccc2)C[C@H]1c1nc(CCCc2ccccc2)no1` (stereo in doubt) [Compound 7C, 3-(3-phenylpropyl)-5-[(2S,4S)-1-methanesulfonyl-4-phenylpyrrolidin-2-yl]-1,2,4-oxadiazole], the pIC50 was over 5.00.
Compound `O=C(NCc1ccccc1)N1[C@@H]2CC[C@@H](C2)[C@H]1c1nnc(Cc2c[nH]c3ccccc23)[nH]1` [Compound 24F, (1R,3S,4S)-3-(5-((1H-indol-3-yl)methyl)-4H-1,2,4-triazol-3-yl)-N-benzyl-2-azabicyclo[2.2.1]heptane-2-carboxamide] has a pIC50 of 4.30 to 5.00.
`CS(=O)(=O)N1C[C@H]2CC[C@]1(c1nc(CCc3ccccc3)no1)CC2` [Compound 15C, 5-((1s,4s)-2-(methylsulfonyl)-2-azabicyclo[2.2.2]octan-1-yl)-3-phenethyl-1,2,4-oxadiazole] was tested, and the pIC50 was 4.30 to 5.00.
`O=S(=O)(C1CCOCC1)N1C[C@H](c2ccccc2)C[C@H]1c1nc(CCCc2ccccc2)no1` [Compound 7AP, 5-((2S,4S)-4-phenyl1-((tetrahydro-2H-pyran-4-yl)sulfonyl)pyrrolidin-2-yl)-3-(3-phenylpropyl)-1,2,4-oxadiazole] gave a pIC50 of over 5.00.
`c1ccc(CCCc2noc([C@@H]3CCCN3CC3CCCCC3)n2)cc1` [Compound 1U, (S)-5-(1-(cyclohexylmethyl)pyrrolidin-2-yl)-3-(3-phenylpropyl)-1,2,4-oxadiazole] gave a pIC50 of over 5.00.
`COC(=O)c1nc([C@@H]2CCCCN2S(=O)(=O)C2CCCCC2)oc1C` [Compound 32B, Methyl (S)-2-(1-(cyclohexylsulfonyl)piperidin-2-yl)-5-methyloxazole-4-carboxylate] gave a pIC50 of 4.30 to 5.00.
`CC(C)CS(=O)(=O)N1CCC[C@H]1c1nc(CNC(=O)c2cccc3ccccc23)no1` [Compound 11A, 3-[(1-naphthoylamino)methyl]-5-[(2S)-1-isobutylsulfonylpyrrolidin-2-yl]-1,2,4-oxadiazole] was tested, and the pIC50 was over 5.00.
`O=S(=O)(Cc1ccccc1)N1CC(c2ccccc2)C[C@H]1c1nc(CCCc2ccccc2)no1` (stereo in doubt) [Compound 7E, 3-(3-Phenylpropyl)-5-[(2S,4S)-1-benzylsulfonyl-4-phenylpyrrolidin-2-yl]-1,2,4-oxadiazole] gave a pIC50 of under 4.30.
Compound `COc1ccc(S(=O)(=O)N2CC(CC3CCC3)CC2c2nc(CCCc3ccccc3)no2)cc1` (centres unmarked) [Compound 6AI, 5-(4-(cyclobuthylmethyl)-1-((4-methoxyphenyl)sulfonyl)pyrrolidin-2-yl)-3-(3-phenylpropyl)-1,2,4-oxadiazole] has a pIC50 of over 5.00.
Work on `O=S(=O)(C1CCCCC1)N1CC2(CC2)C[C@H]1c1nc(CCCc2ccccc2)no1` [Compound 5B, 3-(3-phenylpropyl)-5-{(6S)-5-cyclohexylsulfonyl-5-azaspiro[2.4]hept-6-yl}-1,2,4-oxadiazole] yielded a pIC50 of over 5.00.
`CC(=O)N1CCC[C@H]1c1nc(CCCc2ccccc2)no1` [Compound 1R] showed a pIC50 of 4.30 to 5.00.
`Cc1sc([C@@H]2CCCCN2S(=O)(=O)C2CCCCC2)nc1C(=O)O` [Compound 36B, (S)-2-(1-(Cyclohexylsulfonyl)piperidin-2-yl)-5-methyl thiazole-4-carboxylic acid] was tested, and the pIC50 was over 5.00.
With `O=C(c1ccccc1)N1CCC[C@H]1c1nc(CCCc2ccccc2)no1` [Compound 1S, (S)-Phenyl(2-(3-(3-phenylpropyl)-1,2,4-oxadiazol-5-yl)pyrrolidin-1-yl)methanone] the pIC50 was over 5.00.

Same assay, conditions: Vero, 72 h, read-out: Anti-RS virus Activity
With `O=S(=O)(N1CCCCC1)N1CCCC[C@H]1c1nc(CCCc2ccccc2)no1` [Compound 2AD, (S)-3-(3-phenylpropyl)-5-(1-(piperidine-1-ylsulfonyl)piperidin-2-yl)-1,2,4-oxadiazole] the pIC50 was over 5.00.
